Measured values published in patent US10189836B2, “Therapeutic compounds, compositions and methods of use thereof” (Genentech, Inc., priority 2015, dated 2019).

Columns and labels:
[1] = target: isolated recombinant JAK1 kinase domain (Homo sapiens (Human), UniProt P23458); assay: JAK1 enzyme assay (Caliper LabChip, Ki); format: biochemical; details: isolated recombinant JAK1 kinase domain, 1.5 nM enzyme, ATP 25 μM
[2] = target: isolated recombinant JAK2 kinase domain (Homo sapiens (Human), UniProt O60674); assay: JAK2 enzyme assay (Caliper LabChip, Ki); format: biochemical; details: isolated recombinant JAK2 kinase domain, 0.2 nM enzyme, ATP 25 μM
isolated recombinant JAK2 kinase domain, sequence (O60674 849-1124): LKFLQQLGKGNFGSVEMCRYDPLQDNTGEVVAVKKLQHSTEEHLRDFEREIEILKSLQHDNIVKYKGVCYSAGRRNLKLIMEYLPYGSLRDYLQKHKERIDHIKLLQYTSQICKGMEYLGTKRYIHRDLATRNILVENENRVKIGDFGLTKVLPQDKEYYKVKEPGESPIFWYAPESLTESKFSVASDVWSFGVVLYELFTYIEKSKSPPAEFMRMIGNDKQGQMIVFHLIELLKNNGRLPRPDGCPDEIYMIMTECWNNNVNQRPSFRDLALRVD

isolated recombinant JAK1 kinase domain, sequence (P23458 875-1153): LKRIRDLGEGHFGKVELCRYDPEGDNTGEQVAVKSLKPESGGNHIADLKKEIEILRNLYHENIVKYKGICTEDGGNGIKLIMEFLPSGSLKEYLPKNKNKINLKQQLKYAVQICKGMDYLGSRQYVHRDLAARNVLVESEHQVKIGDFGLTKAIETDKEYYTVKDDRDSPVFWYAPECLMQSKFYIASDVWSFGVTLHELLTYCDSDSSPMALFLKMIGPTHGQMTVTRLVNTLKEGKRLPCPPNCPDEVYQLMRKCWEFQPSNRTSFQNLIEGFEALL

Structure (SMILES)	Ki [1]	Ki [2]
CN1CCN(C(=O)Cn2cc(Nc3nc4c(N5CC6CCC(C5)N6C(=O)CC(C)(C)C(F)(F)F)cccn4n3)cn2)CC1 [Example 77, 4,4,4-trifluoro-3,3-dimethyl-1-[3-[2-[[1-[2-(4-methylpiperazin-1-yl)-2-oxo-ethyl]pyrazol-4-yl]amino]-[1,2,4]triazolo[1,5-a]pyridin-8-yl]-3,8-diazabicyclo[3.2.1]octan-8-yl]butan-1-one]	1.7 nM	2.3 nM
CN1CCN(C(=O)Cn2cc(Nc3nc4c(N5CC6CCC(C5)N6C(=O)CCC(F)(F)F)cccn4n3)cn2)CC1 [Example 5, 4,4,4-trifluoro-1-[3-[2-[[1-[2-(4-methylpiperazin-1-yl)-2-oxo-ethyl]pyrazol-4-yl]amino]-[1,2,4]triazolo[1,5-a]pyridin-8-yl]-3,8-diazabicyclo[3.2.1]octan-8-yl]butan-1-one]	0.6 nM	1.2 nM
Cc1ccc(CO[C@H]2[C@@H]3CC[C@H]2CN(c2cccn4nc(Nc5cnn(CC(=O)N6CCN(C)CC6)c5)nc24)C3)cn1 [Example 151, 1-(4-methylpiperazin-1-yl)-2-[4-[[8-[rac-(1S,5R)-8-[(6-methyl-3-pyridyl)methoxy]-3-azabicyclo[3.2.1]octan-3-yl]-[1,2,4]triazolo[1,5-a]pyridin-2-yl]amino]pyrazol-1-yl]ethanone]	0.6 nM	–
CN1CCN(C(=O)Cn2cc(Nc3nc4c(N5C[C@H]6CC[C@@H](C5)[C@H]6OCc5cnn(C)c5)cccn4n3)cn2)CC1 [Example 95, 1-(4-methylpiperazin-1-yl)-2-[4-[[8-[(1S,5R)-8-[(1-methylpyrazol-4-yl)methoxy]-3-azabicyclo[3.2.1]octan-3-yl]-[1,2,4]triazolo[1,5-a]pyridin-2-yl]amino]pyrazol-1-yl]ethanone]	2.3 nM	5 nM
N#CC1(CNC2CCN(C(=O)Cn3cc(Nc4nc5c(N6CC7CCC(C6)N7C(=O)C6CC(C(F)(F)F)C6)cccn5n4)cn3)CC2)CC1 (centres unmarked) [Example 190, 1-[[[1-[2-[4-[[8-[8-[3-(trifluoromethyl)cyclo-butanecarbonyl]-3,8-diazabicyclo[3.2.1]octan-3-yl]-[1,2,4]triazolo[1,5-a]pyridin-2-yl]amino]pyrazol-1-yl]acetyl]-4-piperidyl]amino]methyl]-cyclopropanecarbonitrile]	1 nM	1.8 nM
CC(C(=O)N1CCN(C)CC1)n1cc(Nc2nc3c(N4CC5CCC(C4)N5C(=O)C4CC(C(F)(F)F)C4)cccn3n2)cn1 (centres unmarked) [Example 124, 1-(4-methylpiperazin-1-yl)-2-[4-[[8-[8-(3-(trifluoromethyl)-cyclobutanecarbonyl]-3,8-diazabicyclo[3.2.1]octan-3-yl]-[1,2,4]triazolo[1,5-a]pyridin-2-yl]amino]pyrazol-1-yl]propan-1-one]	1.9 nM	3.7 nM
CN1CCN(C(=O)Cn2cc(Nc3nc4c(N5CC6CCC(C5)N6C(=O)c5cnc(CC(F)(F)F)s5)cccn4n3)cn2)CC1 [Example 196]	0.6 nM	1.1 nM
CC(C(=O)N1CCN(C)CC1)n1cc(Nc2nc3c(N4CC5CCCC(C4)N5C(=O)CCC(F)(F)F)cccn3n2)cn1 (centres unmarked) [Example 105, 4,4,4-trifluoro-1-[3-[2-[[1-[1-methyl-2-(4-methylpiperazin-1-yl)-2-oxo-ethyl]pyrazol-4-yl]amino]-[1,2,4]triazolo[1,5-a]pyridin-8-yl]-3,9-diazabicyclo[3.3.1]nonan-9-yl]butan-1-one]	1 nM	0.8 nM
CN1CCN(C(=O)Cn2cc(Nc3nc4c(N5CC6CCC(C5)N6S(=O)(=O)Cc5ccccc5C(F)(F)F)cccn4n3)cn2)CC1 [Example 167, 1-(4-methylpiperazin-1-yl)-2-[4-[[8-[8-([2-(trifluoromethyl)phenyl]methylsulfonyl]-3,8-diazabicyclo[3.2.1]octan-3-yl]-[1,2,4]triazolo[1,5-a]pyridin-2-yl]amino]pyrazol-1-yl]ethanone]	0.6 nM	1 nM
CN1CCN(C(=O)Cn2cc(Nc3nc4c(N5CC6CCC(C5)N6S(=O)(=O)c5ccc(Cl)cc5)cccn4n3)cn2)CC1 [Example 93, 2-[4-[[8-[8-(4-chlorophenyl)sulfonyl-3,8-diazabicyclo[3.2.1]octan-3-yl]-[1,2,4]triazolo[1,5-a]pyridin-2-yl]amino]pyrazol-1-yl]-1-(4-methylpiperazin-1-yl)ethanone]	0.3 nM	0.8 nM
CN1CCN(C(=O)Cn2cc(Nc3nc4c(N5CC6CCC(C5)N6C(=O)COC(F)(F)F)cccn4n3)cn2)CC1 [Example 54, 1-(4-methylpiperazin-1-yl)-2-[4-[[8-[8-[2-(trifluoromethoxy)acetyl]-3,8-diazabicyclo[3.2.1]octan-3-yl]-[1,2,4]triazolo[1,5-a]pyridin-2-yl]amino]pyrazol-1-yl]ethanone]	1.6 nM	4.9 nM
CN1CCN(C(=O)Cn2cc(Nc3nc4c(N5CC6CCC(C5)N6C(=O)NCC(F)(F)F)cccn4n3)cn2)CC1 [Example 110, 3-[2-[[1-[2-(4-methylpiperazin-1-yl)-2-oxo-ethyl]pyrazol-4-yl]amino]-[1,2,4]triazolo[1,5-a]pyridin-8-yl]-N-(2,2,2-trifluoroethyl)-3,8-diazabicyclo[3.2.1]octane-8-carboxamide]	0.9 nM	3.4 nM
CN1CCN(C(=O)Cn2cc(Nc3nc4c(N5CC6COCC(C5)N6C(=O)CCC(F)(F)F)cccn4n3)cn2)CC1 [Example 130, 4,4,4-trifluoro-1-[7-[2-[[1-[2-(4-methylpiperazin-1-yl)-2-oxo-ethyl]pyrazol-4-yl]amino]-[1,2,4]triazolo[1,5-a]pyridin-8-yl]-3-oxa-7,9-diazabicyclo[3.3.1]nonan-9-yl]butan-1-one]	–	26.6 nM
CN1CCN(C(=O)Cn2cc(Nc3nc4c(N5C[C@H]6CC[C@@H](C5)[C@H]6NCCC(F)(F)F)cccn4n3)cn2)CC1 [Example 145, 1-(4-methylpiperazin-1-yl)-2-(4-((8-((1R,5 S,8r)-8-((3,3,3-trifluoropropyl)amino)-3-azabicyclo[3.2.1]octan-3-yl)-[1,2,4]triazolo[1,5-a]pyridin-2-yl)amino)-1H-pyrazol-1-yl)ethanone]	1.3 nM	–
CN1CCN(C(=O)Cn2cc(Nc3nc4c(N5CC6CCC(C5)N6Cc5cnc(CC(F)(F)F)s5)cccn4n3)cn2)CC1 [Example 101, 1-(4-methylpiperazin-1-yl)-2-[4-[[8-[8-[[2-(2,2,2-trifluoroethyl)thiazol-5-yl]methyl]-3,8-diazabicyclo[3.2.1]octan-3-yl]-[1,2,4]triazolo[1,5-a]pyridin-2-yl]amino]pyrazol-1-yl]ethanone]	2.9 nM	10.3 nM
CN1CCN(C(=O)Cn2cc(Nc3nc4c(N5C[C@H]6CC[C@@H](C5)[C@@H]6OCc5ccncc5)cccn4n3)cn2)CC1 [Example 189, 1-(4-methylpiperazin-1-yl)-2-(4-((8-((1R,5 S,8s)-8-(pyridin-4-ylmethoxy)-3-azabicyclo[3.2.1]octan-3-yl)-[1,2,4]triazolo[1,5-a]pyridin-2-yl)amino)-1H-pyrazol-1-yl)ethanone]	0.5 nM	–
CN1CCN(C(=O)Cn2cc(Nc3nc4c(N5CC6CCC(C5)N6CCCC(F)(F)F)cccn4n3)cn2)CC1 [Example 73, 1-(4-methylpiperazin-1-yl)-2-[4-[[8-[8-(4,4,4-trifluorobutyl)-3,8-diazabicyclo[3.2.1]octan-3-yl]-[1,2,4]triazolo[1,5-a]pyridin-2-yl]amino]pyrazol-1-yl]ethanone]	8.8 nM	–
CN1CCN(C(=O)Cn2cc(Nc3nc4c(C5=CC6CCC(C5)N6C(=O)CCC(F)(F)F)cccn4n3)cn2)CC1 (centres unmarked) [Example 18, 4,4,4-trifluoro-1-[3-[2-[[1-[2-(4-methylpiperazin-1-yl)-2-oxo-ethyl]pyrazol-4-yl]amino]-[1,2,4]triazolo[1,5-a]pyridin-8-yl]-8-azabicyclo[3.2.1]oct-3-en-8-yl]butan-1-one]	1.5 nM	–
CN1CCN(C(=O)Cn2cc(Nc3nc4c(N5CC6CCC(C5)N6C(=O)C5(C#N)CCCC5)cccn4n3)cn2)CC1 [Example 155, 1-[3-[2-[[1-[2-(4-methylpiperazin-1-yl)-2-oxo-ethyl]pyrazol-4-yl]amino]-[1,2,4]triazolo[1,5-a]pyridin-8-yl]-3,8-diazabicyclo[3.2.1]octane-8-carbonyl]cyclopentane-carbonitrile]	–	21 nM
CN1CCN(C(=O)Cn2cc(Nc3nc4c(N5CC6CCC(C5)N6C(=O)c5ccccc5)cccn4n3)cn2)CC1 [Example 70, 2-[4-[[8-(8-benzoyl-3,8-diazabicyclo[3.2.1]octan-3-yl)-[1,2,4]triazolo[1,5-a]pyridin-2-yl]amino]pyrazol-1-yl]-1-(4-methylpiperazin-1-yl)ethanone]	4.2 nM	–
CN1CCN(C(=O)Cn2cc(Nc3nc4c(C5=CC6CCC(C5)N6C(=O)CCC(F)(F)F)cccn4n3)cn2)CC1 (centres unmarked) [Example 13, 4,4,4-trifluoro-1-[3-[2-[[1-[2-(4-methylpiperazin-1-yl)-2-oxo-ethyl]pyrazol-4-yl]amino]-[1,2,4]triazolo[1,5-a]pyridin-8-yl]-8-azabicyclo[3.2.1]oct-3-en-8-yl]butan-1-one]	0.9 nM	–
CN1CCN(C(=O)Cn2cc(Nc3nc4c(N5CC6CCC(C5)N6C(=O)C5CC6C(C5)C6(F)F)cccn4n3)cn2)CC1 (centres unmarked) [Example 57, 2-[4-[[8-[8-(6,6-difluorobicyclo[3.1.0]hexane-3-carbonyl)-3,8-diazabicyclo[3.2.1]octan-3-yl]-[1,2,4]triazolo[1,5-a]pyridin-2-yl]amino]pyrazol-1-yl]-1-(4-methylpiperazin-1-yl)ethanone]	4.8 nM	–
CN1CCN(C(=O)Cn2cc(Nc3nc4c(N5C[C@H]6CC[C@@H](C5)[C@H]6OCc5ccncc5)cccn4n3)cn2)CC1 [Example 144, 1-(4-methylpiperazin-1-yl)-2-[4-[[8-[rac-(1S,5R)-8-(4-pyridylmethoxy)-3 - azabicyclo[3.2.1]octan-3-yl]-[1,2,4]triazolo[1,5-a]pyridin-2-yl]amino]pyrazol-1-yl]ethanone]	0.8 nM	–
